# Assay results published in patent US20200206172A1, “COMPOSITIONS AND METHODS FOR TREATING NEURODEGENERATIVE DISORDERS” (GNT Pharma Co., Ltd., priority 2018, published 2020).
# Several values for one entry are separate records, joined by “and”; a condition that tells them apart may be missing. Identical values can stand only once.
# Columns and labels:
# [1] = test system: mouse model of amyotrophic lateral sclerosis; details: previous study [20]; cited from earlier work
# [2] = target: T1, microsomal prostaglandin E(2) synthase-1 (mPGES-1) (Homo sapiens, UniProt O14684); details: previous study [20]; cited from earlier work
# T1 sequence (O14684 1-152): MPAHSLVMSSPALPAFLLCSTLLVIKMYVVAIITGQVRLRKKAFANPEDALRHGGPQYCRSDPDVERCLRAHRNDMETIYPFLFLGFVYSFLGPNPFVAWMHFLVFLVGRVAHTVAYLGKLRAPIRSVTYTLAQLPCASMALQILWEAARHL
# dogs with CDS [3] = test: Canine dementia scale (CADES) questionnaire in companion dogs with CDS; assay type: in vivo, dog
# Text: (§1) The companion animals tested in the study were 22 elderly dogs (12-19 years of age) diagnosed with CDS. Each dog enrolled for the present study met the following criteria: body weight <12 kg (regardless of gender), dogs which had lived with the owner for at least 90 days, dogs which were able to take oral medicine, dogs with CDS diagnosed by investigator (canine cognitive dysfunction rating (CCDR) scale ≥50 points) and dogs with informed consent of their owners. Dogs with a pregnancy or lactating, with hypersensitivity against salicylic acid derivatives, or with the underlying disease (i.e. renal dysfunction, visual loss, heart failure, or renal failure) were excluded. In addition, dogs which had participated any other clinical trials within 90 days or dogs which had not only CDS but also other neurodegenerative diseases were excluded.
# (§2) This study was a randomized, blind, placebo-controlled clinical trial to investigate the efficacy and safety of Compound 2 in dogs with CDS. To investigate the efficacy of Compound 2, two questionnaires were evaluated: CCDR scale and canine dementia scale (CADES). To measure the safety of Compound 2, not only the occurrence of adverse events was investigated but also the vital signs, physical examination, and blood tests were performed in the dogs. Compound 2 was prescribed for oral administration of 10 mg/kg once-daily dosing for 8 weeks. Subjects 3 and 4 received Compound 2 additionally for 4 weeks with approval of the principal investigator. Instead of Compound 2, subjects 18-22 received placebo for 8 weeks. In this study, we allowed the dogs to be administered Compound 2 in various ways: mix with dietary supplement (subjects 1 and 3), mix with food (subjects 2 and 6), dissolve in water (subject 4), or capsule with water (subject 5), or chewable tablet with water (subjects 7-22).
# (§3) Rating scales are essential tools for CDS diagnosis, staging, assessment, and careful monitoring of the disease symptoms as well as for evaluation of the efficacy of therapeutic strategies. Several rating scales have been developed during the last decade e.g. CCDR scale. To assess the severity of CDS in this study, two questionnaires (CCDR scale and CADES) were performed before and after oral administration of Compound 2 by a veterinarian. Questionnaires include a broad range of items measuring appetite, drinking behavior, barking, elimination behavior, day/night sleeping pattern, aimless behavior, adaptive capabilities, social behavior, perceptual ability, disorientation, and memory.
# To ensure and confirm the CCDR scale, we used an additional questionnaire, CADES which contains 17 items distributed into four domains, related to changes in dogs' behaviors: spatial orientation, social interaction, sleep-wake cycle, and house soiling (Table 6). It can be classified according to various stages of cognitive impairment: mild, moderate, and severe cognitive impairment. It is known well that CADES is also suitable for long-term assessment of the progression of cognitive impairment in canine, and potentially as efficacy readout for treatments.
# [4] = Pharmacokinetics after oral administration in mice; assay type: in vivo; details: mouse, plasma, 2.5 mg/kg
# dogs with CDS [5] = test: CCDR scale questionnaire in companion dogs with CDS, randomized blind placebo-controlled clinical trial; assay type: in vivo, dog; parameters: key to CCDR score, 4 weeks / CCDR score, 8 weeks / CCDR score, 12 weeks / CCDR score, 16 weeks (discontinuation) / CCDR score, 20 weeks (discontinuation) / CCDR score, 12 weeks (discontinuation): CCDR scale points (13 items); ≥50 indicates CDS
# Text: as §1, §2, §3
# CCDR scale consists of 13 items based on CDS symptoms (Table 2). The 13 kinds of behaviors included various problems related to orientation (staring blankly, getting lost in the home), memory (lack of recognition of owners, house-soiling), apathy (reduced time spent active, avoiding contact with owners), impaired olfaction (difficulty finding food), and locomotion. These problems compromise both the dog's quality of life and the dog-owner bond. Scores ≥50 on the CCDR are indicative of CDS in the aged dogs (12-19 years of age). In this study, we compared the CCDR scores before and after administration of Compound 2 in dogs with CDS.
# [6] = Pharmacokinetic study in beagle dogs; assay type: in vivo; details: dog, plasma, oral, 20 mg/kg/day
# Protocol: Based upon the safety and pharmacokinetic profile of Compound 2, a dose of 10 mg/kg/day was chosen to investigate safety and efficacy of Compound 2 in canine CDS.
# dogs with CDS [7] = test: Safety assessment in dogs with CDS; assay type: in vivo; details: 10 mg/kg oral once daily
# Protocol: as §2
# During this study, the safety of Compound 2 in dogs with CDS was evaluated at every visit.
# Stability test = assay type: physicochemical
# Protocol: In stability test, Compound 2 was stable at 25° C. for at least 60 months. Additionally, the capsule and chewable formulations of Compound 2 were stable at 25° C. for at least 24 and 12 months, respectively.
# G93A mice = test: Animal model of amyotrophic lateral sclerosis (G93A mice), preliminary data; assay type: in vivo; details: oral, 2.5 mg/kg
# in vivo = test: in vivo; parameters: species or system beagle dogs; details: both sexes, beagle, dog, po
# Protocol: The systemic toxic potential of Compound 2 in beagle dogs was investigated in Huntington Life Science, a large non-clinical contract research organization in Cambridgeshire, England. Three groups each comprising three males and three females, received Compound 2 at doses of 20, 65, or 200 mg/kg/day for 13 weeks. […] Consequently, 200 mg/kg/day was considered the no-observed-adverse-effect level (NOAEL) in dogs.
# APP/PS1 mice = test: Animal model of AD (APP/PS1 mice), preliminary data; assay type: in vivo; details: oral, 2.5 mg/kg
# moderate-to-severe AD = details: cited from earlier work
# CDS dogs = details: literature [17-19]; effect in most dogs disappeared at 8 weeks after treatment; cited from earlier work
# [8] = 10 mg/kg oral once daily, per individual dog
# [9] = change vs 0 week, per individual dog
# [10] = change vs 0 week, 10 mg/kg oral once daily, per individual dog, 10 mg/kg
structure (smiles),measurement,setting,value
"O=C(O)c1cc(NCCc2ccc(C(F)(F)F)cc2)ccc1O [Compound 2, 2-hydroxy-5-[2-(4-trifluoromethyl-phenyl)-ethylamino]-benzoic acid]",motor function activity and life span,[1],increases of motor function activity and life span
same,"mPGES-1 inhibition, effective concentration",[2],effective at nanomolar concentrations
same,"CADES score of house soiling (items 13-17), 4 weeks",dogs with CDS [3]; [8],5 (2×) and 9 and 16 and 14 and 22 (2×) and 11 and 3 and 19 (2×) and 17 and 10 and 25 and 18 and 4 and 0
same,"CADES score of house soiling (items 13-17), 8 weeks",dogs with CDS [3]; [8],4 (2×) and 0 (3×) and 8 and 12 and 18 and 14 and 21 and 20 and 5 and 19 and 17 and 25
same,"CADES score of sleep-wake cycles (items 11-12), 4 weeks",dogs with CDS [3]; [8],18 (4×) and 6 and 16 (2×) and 20 (3×) and 0 and 10 (2×) and 8 (2×) and 14 and 4
same,"CADES score of sleep-wake cycles (items 11-12), 8 weeks",dogs with CDS [3]; [8],10 and 0 (4×) and 14 and 12 (3×) and 20 (2×) and 16 (2×) and 8 and 6
same,"CADES score of social interaction (items 6-10), 4 weeks",dogs with CDS [3]; [8],5 (2×) and 14 (3×) and 17 (2×) and 13 (3×) and 0 and 25 and 15 and 10 and 18 and 20 and 19
same,"CADES score of social interaction (items 6-10), 8 weeks",dogs with CDS [3]; [8],15 (2×) and 5 and 10 (2×) and 14 and 11 and 19 and 4 and 24 and 16 and 18 and 9 and 13 and 3
same,"CADES score of spatial orientation (items 1-5), 4 weeks",dogs with CDS [3]; [8],5 (3×) and 20 (3×) and 18 (2×) and 16 and 17 and 24 (3×) and 25 (2×) and 13 and 21
same,"CADES score of spatial orientation (items 1-5), 8 weeks",dogs with CDS [3]; [8],9 and 15 (3×) and 13 (2×) and 17 and 25 and 0 and 24 and 20 (2×) and 22 and 23 and 4
same,"Total CADES score, 4 weeks",dogs with CDS [3]; [8],33 and 49 and 67 and 65 and 68 and 69 and 8 and 89 and 64 and 57 and 66 and 55 and 90 and 51 and 14
same,"Total CADES score, 8 weeks",dogs with CDS [3]; [8],38 and 20 and 45 and 53 and 58 and 78 and 4 and 85 and 55 and 63 and 57 and 64 and 40 and 67 and 7
same,companion dogs showing improvement in spatial disorientation,"dogs with CDS [3]; 4 weeks after administration, 10 of 17 dogs",59%
same,companion dogs showing further improvement in social interaction at 8 weeks compared with 4 weeks,dogs with CDS [3]; 8 of 15 dogs,53%
same,companion dogs significantly improved in sleep-wake cycle (item 11),"dogs with CDS [3]; 8 weeks after administration, 10 of 15 dogs",67%
same,cognitive function by total CADES score,dogs with CDS [3]; 8 weeks after oral administration,"significant improvement in cognitive function was observed from severe to moderate, weak, or normal level"
same,companion dogs with beneficial effects on spatial orientation,"dogs with CDS [3]; 8 weeks after oral administration, 9 of 15 dogs",60%
same,"CADES score of house soiling (items 13-17), change, 4 weeks",dogs with CDS [3]; [9],1 and −6 and −2 (2×) and −5 (2×) and −1 (2×) and −4 and −15 and 0 (5×) and −3 and −10
same,"CADES score of house soiling (items 13-17), change, 8 weeks",dogs with CDS [3]; [9],0 (3×) and −15 and −10 (2×) and −7 and −5 and −1 (2×) and −18 and 1 and −2 and −3 and −6
same,"CADES score of sleep-wake cycles (items 11-12), change, 4 weeks",dogs with CDS [3]; [9],−2 (5×) and −4 and 4 (2×) and 0 (6×) and −18 and −6 and −12
same,"CADES score of sleep-wake cycles (items 11-12), change, 8 weeks",dogs with CDS [3]; [9],−10 (3×) and −4 (2×) and −2 (2×) and −6 and 0 (3×) and −18 and 2 and −14 and −16
same,"CADES score of social interaction (items 6-10), change, 4 weeks",dogs with CDS [3]; [9],−10 and 0 (6×) and −1 (3×) and −2 (2×) and −4 and −14 and −5 and −7 and −11
same,"CADES score of social interaction (items 6-10), change, 8 weeks",dogs with CDS [3]; [9],0 (3×) and −9 and −8 and −5 and −2 and 1 and −10 and −1 (2×) and −3 and −6 and −7 and −13
same,"CADES score of spatial orientation (items 1-5), change, 4 weeks",dogs with CDS [3]; [9],−9 and −3 (2×) and −1 (3×) and −2 (2×) and 2 and −11 and 0 (4×) and 3 and 5 and −19
same,"CADES score of spatial orientation (items 1-5), change, 8 weeks",dogs with CDS [3]; [9],−5 and −8 and −6 and −3 (2×) and −1 and 3 (2×) and −16 and 0 (4×) and −2 and −20
same,"Total CADES score change, 4 weeks",dogs with CDS [3]; [9],−20 and −13 and −6 (2×) and −5 (2×) and −4 and −58 and 0 (2×) and −2 and −8 and 5 (2×) and −11 and −15 and −52
same,"Total CADES score change, 8 weeks",dogs with CDS [3]; [9],−15 and −42 and −28 and −17 and −14 and 3 and −62 and −4 and −9 and −6 and −2 and −10 (2×) and −18 and −59
same,AUC,[4]; read-out: AUC (area under the plasma level-time curve),9610 ± 1380 ng·h/mL
same,Cmax,[4]; read-out: Cmax (mean maximum plasma concentration),5190 ± 960 ng/mL
same,"CCDR score, 4 weeks","dogs with CDS [5]; 10 mg/kg oral once daily, 4 weeks of administration, individual dog (subject No.)",38 and 40 and 55 and 56 and 53 and 54 and 60 and 52 and 50 and 43 and 63 and 49 and 30
same,"CCDR score, 8 weeks","dogs with CDS [5]; 10 mg/kg oral once daily, 8 weeks of administration, per individual dog",34 and 46 and 41 and 51 and 54 and 27 and 50 and 53 and 59 and 43 and 30 and 42
same,beneficial effects maintained after the last administration,"dogs with CDS [5]; aged companion dogs with severe CDS, oral",at least 4 weeks
same,"CCDR score change, 4 weeks",dogs with CDS [5]; [10],−22 and −11 (3×) and −9 (2×) and −12 (2×) and −18 and −5 and −1 and −7 and −6 and −16 and −10 and −44 and −13
same,"CCDR score change, 8 weeks",dogs with CDS [5]; [10],−26 and −5 and −23 and −16 and −11 and −40 and −24 and −6 and −2 and −10 and −9 and −7 and −19 and −44 and −20
same,"CCDR score, 12 weeks","dogs with CDS [5]; subjects 3 and 4, 12-week administration",32 and 43
same,"CCDR score, 16 weeks (discontinuation)","dogs with CDS [5]; subjects 3 and 4, 4 weeks after discontinuation of 12-week administration",38 and 44
same,"CCDR score, 20 weeks (discontinuation)","dogs with CDS [5]; subjects 3 and 4, 8 weeks after discontinuation of 12-week administration",36 and 43
same,"CCDR score, 12 weeks (discontinuation)","dogs with CDS [5]; subjects 7, 8, 10, 11, 4 weeks after discontinuation of 8-week administration",48 and 50 and 54
same,cognitive function on the CCDR scale,dogs with CDS [5]; within 4 weeks of oral administration,near normal cognitive function
same,AUC,[6],75100 ng·h/mL
same,Cmax,[6],10600 ng/mL
same,blood toxicity test,dogs with CDS [7],no significant changes
same,treatment-related adverse events,dogs with CDS [7],did not occur
same,stable at 25° C. for,Stability test,at least 60 months
same,improvement in cognitive and motor functions,G93A mice,maximally beneficial effects
same,NOAEL at 13 weeks,in vivo,200 mg/kg/day
same,improvement in cognitive and motor functions,APP/PS1 mice,maximally beneficial effects
CC12CC3CC(C)(C1)CC(N)(C3)C2 [memantine],mental function and ability to perform daily activities,moderate-to-severe AD,a small improvement
C#CCN(C)[C@H](C)Cc1ccccc1 [selegiline],cognitive function in CDS dogs,CDS dogs,improved within the first 2 weeks
